From patent publication US6967196B1, “Sulfonamide compounds and uses thereof” (Bristol-Myers Squibb Company, priority 1999, dated 2005) come the findings set out here.

The test system of the first assay is amyloid β production in transfected H4 (human neuroglioma) cells stably expressing APP constructs. Description: In vitro cell-based assay of inhibitors of amyloid β production (ELISA). Conditions: Homo sapiens, 16 h, transfected H4 cells stably expressing APP constructs; approximately 16 hours incubation; amyloid β in medium by ELISA; read-out: ACTIVITY (IC50, inhibition of amyloid β production). The procedure, abridged: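 Aβ secreted into the medium was read by sandwich ELISA (monoclonal capture for the Aβ C-terminus, polyclonal detection for the N-terminus) and calibrated on a standard curve. Before this, APP-expressing H4 cells were exposed to compound for ~16 h at an initial 10-100 μM, with actives then retested in dose-response.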
For `C[C@H](CCCS(=O)(=O)N1CCOCC1)N(c1cc(Cl)ccc1Cl)S(=O)(=O)c1ccc(Cl)cc1` [Example 1209, 4-chloro-N-[2,5-dichlorophenyl]-N-[4-[(4-morpholinyl)sulfonyl]-1(R)-methylbutyl]benzenesulfonamide], the IC50 (commonly the point on the concentration scale where inhibition reaches its midpoint) is no more than 0.025 µM.
On to `C[C@H](CCCS(N)(=O)=O)N(c1cc(Cl)ccc1Cl)S(=O)(=O)c1ccc(Cl)cc1` [Example 1210, N-[4-(aminosulfonyl)-1(R)-methylbutyl]-4-chloro-N-(2,5-dichlorophenyl)benzenesulfonamide], for which the IC50 was no more than 0.025 µM.
In the case of `C[C@H](CCCS(=O)(=O)N1CCSCC1)N(c1cc(Cl)ccc1Cl)S(=O)(=O)c1ccc(Cl)cc1` [Example 1211, 4-chloro-N-[2,5-dichlorophenyl]-N-[4-[(4-thiomorpholinyl)sulfonyl]-1(R)-methylbutyl]benzenesulfonamide], the 50% inhibitory concentration (IC50) was no more than 0.025 µM.
Still for that read-out and setting: for `CC(C)N(C)S(=O)(=O)CCC[C@@H](C)N(c1cc(Cl)ccc1Cl)S(=O)(=O)c1ccc(Cl)cc1` [Example 1212, 4-chloro-N-[2,5-dichlorophenyl]-N-[4-[[N-(1-methylethyl)methylamino]sulfonyl]-1(R)-methylbutyl]benzenesulfonamide] the value was no more than 0.025 µM.
The same measure, in the same setting: for `CCN(CC)S(=O)(=O)CCC[C@@H](C)N(c1cc(Cl)ccc1Cl)S(=O)(=O)c1ccc(Cl)cc1` [Example 1213, 4-chloro-N-[2,5-dichlorophenyl]-N-[4-[(diethylamino)sulfonyl]-1(R)-methylbutyl]benzenesulfonamide] the value was no more than 0.025 µM; for `C[C@H](CCCS(=O)(=O)NC1CCS(=O)(=O)C1)N(c1cc(Cl)ccc1Cl)S(=O)(=O)c1ccc(Cl)cc1` (stereo partly drawn) [Example 1214, 4-chloro-N-[2,5-dichlorophenyl]-N-[4-[[(tetrahydro-1,1-dioxido-3-thienyl)amino]sulfonyl]-1(R)-methylbutyl]benzenesulfonamide], no more than 0.025 µM.
Turning to `CC(C)CNS(=O)(=O)CCC[C@@H](C)N(c1cc(Cl)ccc1Cl)S(=O)(=O)c1ccc(Cl)cc1` [Example 1216, 4-chloro-N-[2,5-dichlorophenyl]-N-[4-[(2-methylpropylamino)sulfonyl]-1(R)-methylbutyl]benzenesulfonamide], the IC50 is 0.05 to 0.1 µM.
On the same count and under the same terms, for `C[C@H](CCCS(=O)(=O)O)N(c1cc(Cl)ccc1CO)S(=O)(=O)c1ccc(Cl)cc1` [Example 1231, (4R)-4-[N-[5-chloro-2-(hydroxymethyl)phenyl][(4-chlorophenyl)sulfonyl]amino]pentylsulfonic acid] the value was 0.1 to 0.5 µM; for `CNS(=O)(=O)CCC[C@@H](C)N(c1cc(Cl)ccc1CO)S(=O)(=O)c1ccc(Cl)cc1` [Example 1233, 4-chloro-N-[5-chloro-2-(hydroxymethyl)phenyl]-N-[4-[(methylamino)sulfonyl]-1(R)-methylbutyl]benzenesulfonamide], no more than 0.025 µM.
Turning to `C[C@H](CCCS(=O)(=O)N(C)C)N(c1cc(Cl)ccc1CO)S(=O)(=O)c1ccc(Cl)cc1` [Example 1234, 4-chloro-N-[5-chloro-2-(hydroxymethyl)phenyl]-N-[4-[(dimethylamino)sulfonyl]-1(R)-methylbutyl]benzenesulfonamide], the concentration for half-maximal inhibition (IC50) was no more than 0.025 µM.
Turning to `C[C@H](CCCS(N)(=O)=O)N(c1cc(Cl)ccc1CO)S(=O)(=O)c1ccc(Cl)cc1` [Example 1235, 4-chloro-N-[5-chloro-2-(hydroxymethyl)phenyl]-N-[4-(aminosulfonyl)-1(R)-methylbutyl]benzenesulfonamide], the IC50 was no more than 0.025 µM.
With `C[C@H](CCCS(=O)(=O)N(CCCn1ccnc1)CC1CC1)N(c1cc(Cl)ccc1CO)S(=O)(=O)c1ccc(Cl)cc1` [Example 1236, 4-chloro-N-[5-chloro-2-(hydroxymethyl)phenyl]-N-[4-[N-(cyclopropylmethyl)-N-[3-(1H-imidazol-1-yl)-propyl]aminosulfonyl]-1(R)-methylbutyl]benzenesulfonamide], the IC50 was 0.1 to 0.5 µM.
On to `C[C@H](COC(=O)N1CCCC1)N(c1cc(Cl)ccc1Cl)S(=O)(=O)c1ccc(Cl)cc1` [Example 1237, 4-Chloro-N-(2,5-dichlorophenyl)-N-[2-[[[pyrrolidin-1-yl]carbonyl]oxy]-R-1-methylethyl]benzenesulfonamide], for which the IC50 is no more than 0.025 µM.
On to `C[C@H](COC(=O)N1CCCC1)N(c1cc(F)ccc1F)S(=O)(=O)c1ccc(Cl)cc1` [Example 1238, 4-Chloro-N-(2,5-difluorophenyl)-N-[2-[[[pyrrolidin-1-yl]carbonyl]oxy]-R-1-methylethyl]benzenesulfonamide], for which the IC50 is no more than 0.025 µM.
In the case of `C[C@H](COC(=O)N1CCCC1)N(c1cc(Cl)ccc1F)S(=O)(=O)c1ccc(Cl)cc1` [Example 1243, 4-Chloro-N-(2-fluoro-5-chlorophenyl)-N-[2-[[[pyrrolidin-1-yl]carbonyl]oxy]-(R)-1-methylethyl]benzenesulfonamide], the half-maximal inhibitory concentration (IC50) was no more than 0.025 µM.

Staying with this assay, now noted: transfected H4 cells stably expressing APP constructs; approximately 16 hours incubation; amyloid β in medium by ELISA; read-out: ACTIVITY (IC50, inhibition of amyloid β production).
Turning to `C[C@H](CCCS(=O)(=O)N(C)C1CCCC1)N(c1cc(Cl)ccc1Cl)S(=O)(=O)c1ccc(Cl)cc1` [Example 1215, 4-chloro-N-[2,5-dichlorophenyl]-N-[4-[[(N-cyclopentyl)methylamino]sulfonyl]-1(R)-methylbutyl]benzenesulfonamide], the IC50 lay in the range of 0.025 to 0.05 µM.
Still for that read-out and setting: for `CCS(=O)(=O)CCC[C@@H](C)N(c1cc(Cl)ccc1CO)S(=O)(=O)c1ccc(Cl)cc1` [Example 1217, 4-chloro-N-[5-chloro-2-(hydroxymethyl)phenyl]-N-[1(R)-methyl-(4-ethylsulfonyl)butyl]benzenesulfonamide] the value was no more than 0.025 µM; for `C[C@H](CCCS(=O)(=O)C(C)(C)C)N(c1cc(Cl)ccc1CO)S(=O)(=O)c1ccc(Cl)cc1` [Example 1218], no more than 0.025 µM; for `CC(C)[S+]([O-])CCC[C@@H](C)N(c1cc(Cl)ccc1CO)S(=O)(=O)c1ccc(Cl)cc1` (some centres unmarked) [Example 1219], no more than 0.025 µM.
On the same count and under the same terms, for `CC(C)S(=O)(=O)CCC[C@@H](C)N(c1cc(Cl)ccc1CO)S(=O)(=O)c1ccc(Cl)cc1` [Example 1220] the value was no more than 0.025 µM; for `C[C@H](CCC[S+]([O-])C(C)(C)C)N(c1cc(Cl)ccc1CO)S(=O)(=O)c1ccc(Cl)cc1` (some centres unmarked) [Example 1221], no more than 0.025 µM.
In the case of `CC[S+]([O-])CCC[C@@H](C)N(c1cc(Cl)ccc1CO)S(=O)(=O)c1ccc(Cl)cc1` (stereo partly drawn) [Example 1222, 4-chloro-N-[5-chloro-2-(hydroxymethyl)phenyl]-N-[1(R)-methyl-(4-ethylsulfinyl)butyl]benzenesulfonamide], the IC50 is no more than 0.025 µM.
`CC(C)SCCC[C@@H](C)N(c1cc(Cl)ccc1CO)S(=O)(=O)c1ccc(Cl)cc1` [Example 1223]: the IC50 is no more than 0.025 µM.
Same read-out and setting: for `C[C@H](CCC[S+](C)[O-])N(c1cc(Cl)ccc1CO)S(=O)(=O)c1ccc(Cl)cc1` (stereo partly drawn) [Example 1224, 4-chloro-N-[5-chloro-2-(hydroxymethyl)phenyl]-N-[1(R)-methyl-(4-methylsulfinyl)butyl]benzenesulfonamide] the value was no more than 0.025 µM.
With `C[C@H](CCCS(C)(=O)=O)N(c1cc(Cl)ccc1CO)S(=O)(=O)c1ccc(Cl)cc1` [Example 1225, 4-chloro-N-[5-chloro-2-(hydroxymethyl)phenyl]-N-[1(R)-methyl-(4-methylsulfonyl)butyl]benzenesulfonamide], the IC50 is no more than 0.025 µM.
Same read-out and setting: for `C[C@H](CCCSc1ccccc1)N(c1cc(Cl)ccc1CO)S(=O)(=O)c1ccc(Cl)cc1` [Example 1226, 4-chloro-N-[5-chloro-2-(hydroxymethyl)phenyl]-N-[1(R)-methyl-(4-phenylthio)butyl]benzenesulfonamide] the value was no more than 0.025 µM.
Consider `CCSCCC[C@@H](C)N(c1cc(Cl)ccc1CO)S(=O)(=O)c1ccc(Cl)cc1` [Example 1227, 4-chloro-N-[5-chloro-2-(hydroxymethyl)phenyl]-N-[1(R)-methyl-(4-ethylthio)butyl]benzenesulfonamide], for which the half-inhibitory concentration (IC50) is no more than 0.025 µM.
Still for that read-out and setting: for `CSCCC[C@@H](C)N(c1cc(Cl)ccc1CO)S(=O)(=O)c1ccc(Cl)cc1` [Example 1228, 4-chloro-N-[5-chloro-2-(hydroxymethyl)phenyl]-N-[1(R)-methyl-(4-methylthio)butyl]benzenesulfonamide] the value was no more than 0.025 µM.
Take `C[C@H](CCCSC(C)(C)C)N(c1cc(Cl)ccc1CO)S(=O)(=O)c1ccc(Cl)cc1` [Example 1229]: the IC50 is no more than 0.025 µM.
The same measure, in the same setting: for `C[C@H](CCCS(C)(=O)=O)N(c1cc(Cl)ccc1CO)S(=O)(=O)c1ccc(S(C)(=O)=O)cc1` [Example 1230] the value was 0.025 to 0.05 µM; for `CCSCCC[C@@H](C)N(c1cc(Cl)ccc1CO)S(=O)(=O)c1ccc(SCC)cc1` [Example 1232, 4-ethylthio-N-[5-chloro-2-(hydroxymethyl)phenyl]-N-[1(R)-methyl-(4-ethylthio)butyl]benzenesulfonamide], greater than 0.5 µM; for `C[C@H](COC(=O)NCCCn1ccnc1)N(c1cc(F)ccc1F)S(=O)(=O)c1ccc(Cl)cc1` [Example 1239, 4-Chloro-N-(2,5-difluorophenyl)-N-[2-[[N′-[3-(1H-imidazol-1-yl)propylamino]carbonyl]oxy]-(R)-1-methylethyl]benzenesulfonamide], no more than 0.025 µM.
Turning to `C[C@H](COC(=O)NCCCn1ccnc1)N(c1cc(Cl)ccc1Cl)S(=O)(=O)c1ccc(Cl)cc1` [Example 1240, 4-Chloro-N-(2,5-dichlorophenyl)-N-[2-[[N′-[3-(1H-imidazol-1-yl)propylamino]carbonyl]oxy]-(R)-1-methylethyl]benzenesulfonamide], the IC50 was no more than 0.025 µM.
Take `C[C@H](COC(=O)N1CCC[C@H]1CO)N(c1cc(Cl)ccc1Cl)S(=O)(=O)c1ccc(Cl)cc1` [Example 1241]: the IC50 was no more than 0.025 µM.
With `C[C@H](COC(=O)NCCN1CCCCC1)N(c1cc(Cl)ccc1Cl)S(=O)(=O)c1ccc(Cl)cc1` [Example 1242], the half-maximal inhibitory concentration (IC50) was no more than 0.025 µM.
